Results on one compound are retold here after publication PMC4129416, “YLT192, a Novel, Orally Active Bioavailable Inhibitor of VEGFR2 Signaling with Potent Antiangiogenic Activity and Antitumor Efficacy in Preclinical Models” (Scientific Reports, 2014).

Assay [1] concerns COLO-205. The assay is described as follows: Inhibition of tumor cell growth. To be noted: COLO-205, human colorectal carcinoma; 48 hour treatment; means ± SD, n=3. Format: cell-based. From the text:
Data are means ± SD, n=3.
cell line cell type IC50(μM) […]
COLO-205 human colorectal carcinoma 23.0 ±1.5

Assay [2] concerns HUVEC. The assay is described as follows: Transwell invasion assay. Format: cell-based, human. The settings on record: various concentrations; 24 hours; concentration-dependent. From the text: Cell migration is essential for ECs in angiogenesis and for cancer cells in tumor growth and metastasis. […] Cell invasion is essential for EC in angiogenesis, so we performed transwell assays to evaluate the ability of HUVEC to pass through the Matrigel and membrane barriers of the transwell in the presence of various concentrations of YLT192 or vehicle.
Figure 2 Effects of YLT192 on HUVECs proliferation, migration, invasion and tube formation. […] Cells were wounded by the pipette and then treated with various concentrations of compounds for 24 hours. Migrated cells were quantified by manual counting (50×). […] The bottom chambers of the transwells were filled with 600 μL EGM2 containing various growth factors while the top chambers were seeded with 4 × 10^4 HUVECs in EBM2 and treated with different concentrations of compounds for 24 hours. Cells invaded through the membrane were stained and quantified (100×). […] HUVECs were seeded on Matrigel layer and treated with different concentrations of compounds. HUVECs tube formation was assessed 6 hours later (50×). One representative experiment of three is shown. […]
HUVECs were allowed to grow into full confluence in 24-well plates and then wounded by scratching with pipette tips and washed with PBS. […] Images were taken using a ZEISS digital microscope and invading cells were counted by manual counting. […]

For orientation: IC50 means the concentration that inhibits the measured activity by half. High values mean a need for much substance, low ones inhibition by little substance. In assay [1], `CNC(=O)c1cc(Oc2ccc(NC(=O)c3cccc(OC)c3)cc2)ccn1` [YLT192] registered an IC50 of 23 ± 1.5 µM. For the same compound, the “invasion of HUVECs in transwell assay” value in assay [2] is reported as “significantly inhibited”.
